SMILES strings stand for the structures.

The test has as its target T1, BTK (Homo sapiens, UniProt Q06187).
T1 construct: endogenous in cells; host or cells: Mino cells
Put plainly: BTK degradation activity test in Mino cells. The class given is cell-based. Conditions: 16 h incubation, Western blot or Elisa. The gist of the method:
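DC50 derived by curve fitting of BTK degradation rates versus untreated control across compound concentrations. Mino cells were exposed for 16 h; BTK levels in lysates, normalised via BCA protein, measured by Western blot or ELISA.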
In general terms: In western blotting, separated proteins are transferred to a membrane and probed.

T1 sequence (Q06187 whole entry): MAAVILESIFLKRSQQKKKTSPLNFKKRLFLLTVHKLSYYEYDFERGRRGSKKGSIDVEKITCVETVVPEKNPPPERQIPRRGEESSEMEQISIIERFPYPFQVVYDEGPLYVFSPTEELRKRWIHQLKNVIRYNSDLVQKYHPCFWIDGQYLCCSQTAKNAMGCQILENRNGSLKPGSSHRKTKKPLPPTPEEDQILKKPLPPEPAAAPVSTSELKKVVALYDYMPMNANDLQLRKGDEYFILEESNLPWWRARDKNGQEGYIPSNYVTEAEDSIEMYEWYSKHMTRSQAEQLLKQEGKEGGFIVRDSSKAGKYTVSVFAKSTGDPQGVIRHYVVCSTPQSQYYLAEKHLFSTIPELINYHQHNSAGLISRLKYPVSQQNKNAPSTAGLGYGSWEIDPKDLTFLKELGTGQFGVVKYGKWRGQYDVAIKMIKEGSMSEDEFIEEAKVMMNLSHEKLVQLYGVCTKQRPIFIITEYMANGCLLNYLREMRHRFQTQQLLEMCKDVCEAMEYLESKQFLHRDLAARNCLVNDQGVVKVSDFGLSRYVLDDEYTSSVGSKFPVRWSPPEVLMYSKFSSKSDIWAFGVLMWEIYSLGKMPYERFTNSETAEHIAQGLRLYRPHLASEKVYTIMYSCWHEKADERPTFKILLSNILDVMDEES

For the compound `CN1CCN(C2CC3CC2N(c2nnc(C(N)=O)c(Nc4ccc(N5CCN(CC6CCN(c7ccc8c(c7)C(=O)N(C7CCC(=O)NC7=O)C8=O)CC6)CC5)cc4)n2)C3)C1=O` (stereo not drawn) [Compound 108, 5-((4-(4-((1-(2-(2,6-dioxopiperidin-3-yl)-1,3-dioxoisoindol-5-yl)piperidin-4-yl)methyl)piperazin-1-yl)phenyl)amino)-3-(6-(3-methyl-2-oxoimidazolin-1-yl)-2-azabicyclo[2.2.1]heptan-2-yl)-1,2,4-triazin-6-carboxamide], the DC50 was more than 1 nM.

`CN1CCN(C2CC3CC2N(c2nnc(C(N)=O)c(Nc4ccc(C5CCN(C6CCN(c7ccc8c(c7)C(=O)N(C7CCC(=O)NC7=O)C8=O)CC6)CC5)cc4)n2)C3)C1=O` (stereo not drawn) [Compound 109, 5-((4-(1′-(2-(2,6-dioxopiperidin-3-yl)-1,3-dioxoisoindol-5-yl)-[1,4′-bipiperidin]-4-yl)phenyl)amino)-3-(6-(3-methyl-2-oxoimidazolin-1-yl)-2-azabicyclo[2.2.1]heptan-2-yl)-1,2,4-triazin-6-carboxamide] came in with a DC50 of less than 1 nM.

`CN1CCN(C2CC3CC2N(c2nnc(C(N)=O)c(Nc4ccc(N5CCC(N6CCN(CC#Cc7ccc8c(c7)CN(C7CCC(=O)NC7=O)C8=O)CC6)CC5)cc4)n2)C3)C1=O` (stereo not drawn) [Compound 110] yielded a DC50 of less than 1 nM.

`CN1CCN(C2CC3CC2N(c2nnc(C(N)=O)c(Nc4ccc(C5CCN(CC6CCN(c7cc8c(cc7F)C(=O)N(C7CCC(=O)NC7=O)C8=O)CC6)CC5)cc4)n2)C3)C1=O` (stereo not drawn) [Compound 111, 5-((4-(1-((1-(2-(2,6-dioxopiperidin-3-yl)-6-fluoro-1,3-dioxoisoindol-5-yl)piperidin-4-yl)methyl)piperidin-4-yl)phenyl)amino)-3-(6-(3-methyl-2-oxoimidazolin-1-yl)-2-azabicyclo[2.2.1]heptan-2-yl)-1,2,4-triazin-6-carboxamide]: the DC50 was less than 1 nM.

`CN1CCN(C2CC3CC2N(c2nnc(C(N)=O)c(Nc4ccc(C5CCN(CC6CCN(c7ccc8c(c7)C(=O)N(C7CCC(=O)NC7=O)C8)CC6)CC5)cc4)n2)C3)C1=O` (stereo not drawn) [Compound 112, 5-((4-(1-((1-(2-(2,6-dioxopiperidin-3-yl)-3-oxoisoindol-5-yl)piperidin-4-yl)methyl)piperidin-4-yl)phenyl)amino)-3-(6-(3-methyl-2-oxoimidazolin-1-yl)-2-azabicyclo[2.2.1]heptan-2-yl)-1,2,4-triazin-6-carboxamide] showed a DC50 of less than 1 nM.

As to `CN1CCN(C2CC3CC2N(c2nnc(C(N)=O)c(Nc4ccc(C5CCN(CC6CCN(c7ccc8c(c7)CN(C7CCC(=O)NC7=O)C8=O)CC6)CC5)cc4)n2)C3)C1=O` (stereo not drawn) [Compound 113, 5-((4-(1-((1-(2-(2,6-dioxopiperidin-3-yl)-1-oxoisoindol-5-yl)piperidin-4-yl)methyl)piperidin-4-yl)phenyl)amino)-3-(6-(3-methyl-2-oxoimidazolin-1-yl)-2-azabicycloheptan-2-yl)-1,2,4-triazin-6-carboxamide], the DC50 was less than 1 nM.

Consider `CN1CCN(C2CC3CC2N(c2nnc(C(N)=O)c(Nc4ccc(C5CCN(CC6CCN(c7ccc8c(c7)n(C)c(=O)n8C7CCC(=O)NC7=O)CC6)CC5)cc4)n2)C3)C1=O` (stereo not drawn) [Compound 114, 5-((4-(1-((1-(1-(2,6-dioxopiperidin-3-yl)-3-methyl-2-oxo-2,3-dihydro-1H-benzo[d]imidazol-5-yl)piperidin-4-yl)methyl)piperidin-4-yl)phenyl)amino)-3-(6-(3-methyl-2-oxoimidazolin-1-yl)-2-azabicyclo[2.2.1]heptan-2-yl)-1,2,4-triazin-6-carboxamide], for which the DC50 is less than 1 nM.

For the compound `NC(=O)c1nnc(N2CCC[C@@H](N3CCN(CC(F)(F)F)C3=O)C2)nc1Nc1ccc(N2CCC(CN3CCN(c4cc5c(cc4F)C(=O)N(C4CCC(=O)NC4=O)C5=O)CC3)CC2)cc1` (stereo partly drawn) [Compound 142, 5-((4-(4-((4-(2-(2,6-dioxopiperidin-3-yl)-6-fluoro-1,3-dioxoisoindolin-5-yl)piperazin-1-yl)methyl)piperidin-1-yl)phenyl)amino)-3-((R)-3-(2-oxo-3-(2,2,2-trifluoroethyl)imidazolin-1-yl)piperidin-1-yl)-1,2,4-triazin-6-carboxamide], the DC50 is less than 1 nM.

`CN1CCN([C@@H]2CCCN(c3nnc(C(N)=O)c(Nc4ccc(N5CCN(C[C@H]6CCN(c7ccc(N8CCC(=O)NC8=O)cc7)C6)CC5)c(F)c4)n3)C2)C1=O` [Compound 151, 5-((4-(4-(((R)-1-(4-(2,4-dioxotetrahydropyrimidin-1(2H)-yl)phenyl)pyrrolidin-3-yl)methyl)piperazin-1-yl)-3-fluorophenyl)amino)-3-((R)-3-(3-methyl-2-oxoimidazolin-1-yl)piperidin-1-yl)-1,2,4-triazin-6-carboxamide] had a DC50 of less than 1 nM.

As to `CN1CCN([C@@H]2CCCN(c3nnc(C(N)=O)c(Nc4ccc(N5CCN(C[C@H]6CCN(c7ccc(C(=O)N[C@H]8CCC(=O)NC8=O)nc7)C6)CC5)c(F)c4)n3)C2)C1=O` [Compound 153, 5-((4-(4-(((R)-1-(6-(((S)-2,6-dioxopiperidin-3-yl)carbamoyl)pyridin-3-yl)pyrrolidin-3-yl)methyl)piperazin-1-yl)-3-fluorophenyl)amino)-3-((R)-3-(3-methyl-2-oxoimidazolin-1-yl)piperidin-1-yl)-1,2,4-triazin-6-carboxamide], the DC50 was less than 1 nM.

On to `CN1CCN([C@@H]2CCCN(c3nnc(C(N)=O)c(Nc4ccc(N5CCN(C[C@@H]6CCN(c7ccc(C(=O)N[C@H]8CCC(=O)NC8=O)nc7)C6)CC5)c(F)c4)n3)C2)C1=O` [Compound 154, 5-((4-(4-(((S)-1-(6-(((S)-2,6-dioxopiperidin-3-yl)carbamoyl)pyridin-3-yl)pyrrolidin-3-yl)methyl)piperazin-1-yl)-3-fluorophenyl)amino)-3-((R)-3-(3-methyl-2-oxoimidazolin-1-yl)piperidin-1-yl)-1,2,4-triazin-6-carboxamide], for which the DC50 is less than 1 nM.

`CN1CCN([C@@H]2CCCN(c3nnc(C(N)=O)c(Nc4ccc(C5CCN(C[C@@H]6CCN(c7cc8c(cc7F)C(=O)N(C7CCC(=O)NC7=O)C8=O)C6)CC5)cc4)n3)C2)C1=O` (stereo partly drawn) [Compound 155, 5-((4-(1-(((3S)-1-(2-(2,6-dioxopiperidin-3-yl)-6-fluoro-1,3-dioxoisoindolin-5-yl)pyrrolidin-3-yl)methyl)piperidin-4-yl)phenyl)amino)-3-((R)-3-(3-methyl-2-oxoimidazolin-1-yl)piperidin-1-yl)-1,2,4-triazin-6-carboxamide] displayed a DC50 of less than 1 nM.

Compound `CN1CCN([C@@H]2CCCN(c3nnc(C(N)=O)c(Nc4ccc(C5CCN(C[C@H]6CCN(c7cc8c(cc7F)C(=O)N(C7CCC(=O)NC7=O)C8=O)C6)CC5)cc4)n3)C2)C1=O` (stereo partly drawn) [Compound 156, 5-((4-(1-(((3R)-1-(2-(2,6-dioxopiperidin-3-yl)-6-fluoro-1,3-dioxoisoindolin-5-yl)pyrrolidin-3-yl)methyl)piperidin-4-yl)phenyl)amino)-3-((R)-3-(3-methyl-2-oxoimidazolin-1-yl)piperidin-1-yl)-1,2,4-triazin-6-carboxamide] returned a DC50 of less than 1 nM.

`CN1CCN([C@@H]2CCCN(c3nnc(C(N)=O)c(Nc4ccc(C5CCN(C[C@@H]6CCN(c7ccc8c(c7)C(=O)N(C7CCC(=O)NC7=O)C8=O)C6)CC5)c(F)c4)n3)C2)C1=O` (stereo partly drawn) [Compound 157, 5-((4-(1-(((3S)-1-(2-(2,6-dioxopiperidin-3-yl)-1,3-dioxoisoindolin-5-yl)pyrrolidin-3-yl)methyl)piperidin-4-yl)-3-fluorophenyl)amino)-3-((R)-3-(3-methyl-2-oxoimidazolin-1-yl)piperidin-1-yl)-1,2,4-triazin-6-carboxamide]: the DC50 was less than 1 nM.

`CN1CCN([C@@H]2CCCN(c3nnc(C(N)=O)c(Nc4ccc(C5CCN(C[C@H]6CCN(c7ccc8c(c7)C(=O)N(C7CCC(=O)NC7=O)C8=O)C6)CC5)c(F)c4)n3)C2)C1=O` (stereo partly drawn) [Compound 158, 5-((4-(1-(((3R)-1-(2-(2,6-dioxopiperidin-3-yl)-1,3-dioxoisoindolin-5-yl)pyrrolidin-3-yl)methyl)piperidin-4-yl)-3-fluorophenyl)amino)-3-((R)-3-(3-methyl-2-oxoimidazolin-1-yl)piperidin-1-yl)-1,2,4-triazin-6-carboxamide] registered a DC50 of less than 1 nM.

`CN1CCN([C@@H]2CCCN(c3nnc(C(N)=O)c(Nc4ccc(N5CCN(C[C@@H]6CCN(c7ccc8c(c7)C(=O)N(C7CCC(=O)NC7=O)C8=O)C6)CC5)c(Cl)c4)n3)C2)C1=O` (stereo partly drawn) [Compound 159, 5-((3-chloro-4-(4-(((3S)-1-(2-(2,6-dioxopiperidin-3-yl)-1,3-dioxoisoindolin-5-yl)pyrrolidin-3-yl)methyl)piperazin-1-yl)phenyl)amino)-3-((R)-3-(3-methyl-2-oxoimidazolidin-1-yl)piperidin-1-yl)-1,2,4-triazin-6-carboxamide]: the DC50 was less than 1 nM.

As to `CN1CCN([C@@H]2CCCN(c3nnc(C(N)=O)c(Nc4ccc(N5CCN(C[C@H]6CCN(c7ccc8c(c7)C(=O)N(C7CCC(=O)NC7=O)C8=O)C6)CC5)c(Cl)c4)n3)C2)C1=O` (stereo partly drawn) [Compound 160, 5-((3-chloro-4-(4-(((3R)-1-(2-(2,6-dioxopiperidin-3-yl)-1,3-dioxoisoindolin-5-yl)pyrrolidin-3-yl)methyl)piperazin-1-yl)phenyl)amino)-3-((R)-3-(3-methyl-2-oxoimidazolidin-1-yl)piperidin-1-yl)-1,2,4-triazin-6-carboxamide], the DC50 was less than 1 nM.

Compound `CN1CCN([C@@H]2CCCN(c3nnc(C(N)=O)c(Nc4ccc(N5CCN(CC6CCN(c7ccc8c(c7)C(=O)N(C7CCC(=O)NC7=O)C8=O)CC6)CC5)c(Cl)c4)n3)C2)C1=O` (stereo partly drawn) [Compound 164, 5-((3-chloro-4-(4-((1-(2-(2,6-dioxopiperidin-3-yl)-1,3-dioxoisoindolin-5-yl)piperidin-4-yl)methyl)piperazin-1-yl)phenyl)amino)-3-((R)-3-(3-methyl-2-oxoimidazolidin-1-yl)piperidin-1-yl)-1,2,4-triazin-6-carboxamide] returned a DC50 of less than 1 nM.

For orientation: DC50 means the midpoint of the concentration-degradation curve. A lower DC50 goes with a more potent degrader.

These data come from patent US20240360146A1, “BRUTON'S TYROSINE KINASE AND MUTANT DEGRADER, COMPOSITION AND APPLICATION THEREOF” (HANGZHOU HEALZEN THERAPEUTICS CO., LTD., priority 2021, published 2024).
